# Measured values published in US20190110472A1, “ACTIVE INGREDIENT COMPOSITIONS COMPRISING N-ALKENOYL-N-ALKYLGLUCAMIDES AND THE USE THEREOF” (Clariant International, Ltd., priority 2017, published 2019).
# Assays:
# [1] = Appearance and stability of spray liquids after 24 h; type: physicochemical
# Method: The composition of spray liquids A1-A18 is specified hereinafter. These spray liquids are produced by mixing the various test substances in water, and the appearance and stability of the spray liquid were assessed after 24 h.
# The inventive alkenoylglucamides (A1 to A6) are self-emulsifying in the spray liquid and form cloudy homogeneous emulsions that are stable over 24 h. By contrast, spray liquids comprising non-inventive saturated alkylglucamides (A7-A13) of similar chain length are not phase-stable and flocculate.
# [2] = Dynamic surface tension, bubble pressure method (BP2100 tensiometer, Krüss); type: physicochemical; conditions: for Dynamic surface tension [mN/m] 20 ms: surface age 20 ms; for Dynamic surface tension [mN/m] 50 ms: surface age 50 ms; for Dynamic surface tension [mN/m] 100 ms: surface age 100 ms; for Dynamic surface tension [mN/m] 200 ms: surface age 200 ms
# Method: Dynamic surface tension was determined via the bubble pressure method (BP2100 tensiometer, Krüss). Given a timespan of relevance for the spray application of agrochemicals in aqueous dilution (called the surface age in the bubble pressure method) of 200 milliseconds (ms), the value for dynamic surface tension in [mN/m] correlates with the adhesion on plants that are difficult to wet, such as barley (cereal). A value of 50 mN/m (at 20-21° C.) with respect to water (72.8 mN/m) results in an improvement in the adhesion from “zero adhesion” (0%) to about 50% (Baur P., Pontzen R.; 2007; Basic features of plant surface wettability and deposit formation and the impact of adjuvant; in R. E. Gaskin ed. Proceedings of the 8th International Symposium on Adjuvants for Agrochemicals; Publisher: International Society for Agrochemical Adjuvants (ISAA), Columbus, Ohio, USA).
# [3] = Droplet size distribution of spray (Malvern Spraytec, ID(3)12002 injector nozzle, 3 bar); type: physicochemical; conditions: summary of Table 4, no tankmix partner
# From the text: A Malvern Spraytec “real-time spray sizing system” was used to determine the droplet size distribution. For this purpose, the system (STP5311, Malvern Instruments GmbH, Heidelberg, Germany) was installed in a specially constructed spray cabin, with the option of being able to model real spray applications as carried out in practice with freely adjustable pressure for various hydraulic nozzles and freely adjustable distances (nozzle-target surface). The spray cabin can be darkened and all disruptive parameters can be eliminated. For the measurements, the ID(3)12002 (Lechler) injector nozzles were used. The pressure set was varied, and mean pressure was kept constant at 3 bar for the measurements reported hereinafter. The temperature and relative air humidity varied between 21.5° C. and 29° C. and between 33% and 56% respectively. In each test series, tap water was measured as internal standard. […]
# As a further measurement parameter, the proportion by volume of the droplets having diameter <210 μm (“Vol 210”) was determined and expressed in relation to the proportion by volume of droplets having diameter <105 μm (“Vol 210 / Vol 105”). In addition, the percentage reduction in the proportion by volume of droplets having diameter <105 μm in the case of use of spray liquids containing the test substances was calculated in comparison to the use of tap water as internal standard (“Red 105”).
# apple leaf cuticles = experiment: Membrane penetration test of metribuzin through isolated apple leaf cuticles; type: in vitro ADME; conditions: Sencor 600 SC, metribuzin 2.25 g/L, 10° C./56% rel. air humidity
# Method: The potential of the test substances, which is independent of the surfactant action, to promote foliar absorption of active agrochemical ingredients was determined in membrane penetration tests with apple leaf cuticles using the example of metribuzin. […] Efforts are therefore being made to find additives that promote wetting but only slightly increase the uptake of the active ingredient, such that only a minimum portion of the active ingredient is taken up into the leaf. The plant cuticle is a lipophilic solubility membrane (lipid membrane) without pores or holes, and the results described are also expected for other nonporous lipophilic solubility membranes with these or other electrolyte active ingredients. The principle of the method has been published (e.g. WO-A-2005/194844; Baur, 1997; Baur, Grayson and Schönherr 1999; Baur, Bodelon and Lowe, 2012), and only the specifics and differences in the method are elucidated hereinafter. The leaf cuticles were enzymatically isolated in the manner described in the literature from apple leaves of orchard trees in a commercial stone fruit growing facility near Frankfurt am Main in 2016. The stomata-free cuticles were first dried under air and then installed into stainless steel diffusion cells. After application to the original upper side of the leaf and evaporation of the test liquid, i.e. of the aqueous preparations of the active ingredients without or with the glucamide-containing spray liquids or comparative compositions, the diffusion cells were transferred into thermostatted blocks and charged with aqueous liquid. The water used to make up the aqueous test liquids was local tap water (of known composition). At regular intervals, aliquot samples were taken and the proportion of active ingredient penetrated was determined by HPLC. During the experiment, the temperature in the system (block, diffusion cells, liquids, etc.) and the air humidity above the spray deposit on the cuticle were known exactly and were monitored. […] In each case, the geometric mean values of the penetration for intact membranes at the mean measurement times are given. According to the variant (active ingredient×test additive/formulation), 7-8 repetitions were set up. The coefficient of variation was below 35%, which is a typical biological variability for penetration for numerous plants (Baur, 1997).
# indicator plants = experiment: Plant compatibility after application to indicator plants; type: in vivo; conditions: concentrations of 0.1, 0.3, 0.8, 1.0, 1.5, 2 and 3 g/L
Structure (SMILES),Dynamic surface tension [mN/m] 20 ms ([2]; amount 0.03 % by wt.),Dynamic surface tension [mN/m] 20 ms ([2]; amount 0.1 % by wt.),Dynamic surface tension [mN/m] 20 ms ([2]; amount 0.3 % by wt.),Dynamic surface tension [mN/m] 50 ms ([2]; amount 0.03 % by wt.),Dynamic surface tension [mN/m] 50 ms ([2]; amount 0.1 % by wt.),Dynamic surface tension [mN/m] 50 ms ([2]; amount 0.3 % by wt.),Dynamic surface tension [mN/m] 100 ms ([2]; amount 0.03 % by wt.),Dynamic surface tension [mN/m] 100 ms ([2]; amount 0.1 % by wt.),Dynamic surface tension [mN/m] 100 ms ([2]; amount 0.3 % by wt.),Dynamic surface tension [mN/m] 200 ms ([2]; amount 0.03 % by wt.),Dynamic surface tension [mN/m] 200 ms ([2]; amount 0.1 % by wt.),Dynamic surface tension [mN/m] 200 ms ([2]; amount 0.3 % by wt.),Plant compatibility (necroses or other symptoms such as leaf curl-up or deformation) (indicator plants),also measured
C=CCCCCCCCC(=O)N(C)CC(O)C(O)C(O)C(O)CO (stereo not drawn) [dec-9-enoyl-N-methylglucamide],,,,,,,,,,,,,,"Water solubility in the spray liquid [1]: completely water-soluble; Appearance ([1]; spray liquid in water, assessed after 24 h): clear transparent spray liquid; Dynamic surface tension [mN/m] 20 ms ([2]; amount 0.06 % by wt.): 70.2 mN/m; Dynamic surface tension [mN/m] 20 ms ([2]; amount 0.125 % by wt.): 66.4 mN/m; Dynamic surface tension [mN/m] 20 ms ([2]; amount 0.25 % by wt.): 59.7 mN/m; Dynamic surface tension [mN/m] 50 ms ([2]; amount 0.06 % by wt.): 68.9 mN/m; Dynamic surface tension [mN/m] 50 ms ([2]; amount 0.125 % by wt.): 63.7 mN/m; Dynamic surface tension [mN/m] 50 ms ([2]; amount 0.25 % by wt.): 56.6 mN/m; Dynamic surface tension [mN/m] 100 ms ([2]; amount 0.06 % by wt.): 67.6 mN/m; Dynamic surface tension [mN/m] 100 ms ([2]; amount 0.125 % by wt.): 61.8 mN/m; Dynamic surface tension [mN/m] 100 ms ([2]; amount 0.25 % by wt.): 55.5 mN/m; Dynamic surface tension [mN/m] 200 ms ([2]; amount 0.06 % by wt.): 67.4 mN/m; Dynamic surface tension [mN/m] 200 ms ([2]; amount 0.125 % by wt.): 61.0 mN/m; Dynamic surface tension [mN/m] 200 ms ([2]; amount 0.25 % by wt.): 54.1 mN/m"
CCC=CCCCCCCCC(=O)N(C)CC(O)C(O)C(O)C(O)CO (stereo not drawn) [Dodec-9-enoyl-N-methylglucamide],70.0 mN/m,56.1 mN/m,44.5 mN/m,66.1 mN/m,47.7 mN/m,38.5 mN/m,61.9 mN/m,44.0 mN/m,36.0 mN/m,58.6 mN/m,40.1 mN/m,33.4 mN/m,no necroses or other symptoms,Lowering of the dynamic surface tension (in words) ([2]; summary of Table 2): particularly large; Effect on fine droplet content (in words) [3]: distinct reduction in the fine droplet content; Mean penetration for metribuzin after time in % 1 day (apple leaf cuticles; test substance 0.05 % by wt.): 2.9%; Mean penetration for metribuzin after time in % 2 days (apple leaf cuticles; test substance 0.05 % by wt.): 4.6%; Mean penetration for metribuzin after time in % 1 day (apple leaf cuticles; test substance 0.1 % by wt.): 3.9%; Mean penetration for metribuzin after time in % 2 days (apple leaf cuticles; test substance 0.1 % by wt.): 6.5%; Mean penetration for metribuzin after time in % 1 day (apple leaf cuticles; test substance 0.14 % by wt.): 5.7%; Mean penetration for metribuzin after time in % 2 days (apple leaf cuticles; test substance 0.14 % by wt.): 8.6%
CCCCCCCCCCCC(=O)N(C)CC(O)C(O)C(O)C(O)CO (stereo not drawn) [dodecanoyl-N-methylglucamide],70.6 mN/m,70.0 mN/m,67.0 mN/m,67.3 mN/m,66.8 mN/m,61.9 mN/m,63.0 mN/m,60.1 mN/m,58.8 mN/m,57.9 mN/m,51.4 mN/m,48.7 mN/m,,
CCCCCCCCC(=O)N(C)C[C@H](O)[C@@H](O)[C@H](O)[C@H](O)CO [N-methyl-N-nonanoylglucamine],,,,,,,,,,,,,no necroses or other symptoms,
